Article PMC4183595, “Study on the Main Components Interaction from Flos Lonicerae and Fructus Forsythiae and Their Dissolution In Vitro and Intestinal Absorption in Rats” (PLoS ONE, 2014)
Where two headings read alike, the source gives them in different places.

Assays:
[1] = Rat in vivo pharmacokinetics study after oral administration of product A, B or C; set-up: species or system Male Sprague-Dawley (SD) rats; AUC 0→t in product C group, increased to % compared to that in product A or B groups: concentration or dose not given beside the values; conditions: for AUC(0-t) / AUC(0-inf) / MRT / Tmax / half-life / Cmax: male, Sprague-Dawley, rat, plasma; for AUC(0-t) / AUC(0-inf) / MRT / Tmax / half-life: 10 mL·kg^−1; for AUC(0-t) / AUC 0→t in product C group, increased to % compared to that in product A or B groups: rats; for AUC(0-t): oral product C group; for AUC(0-inf) / MRT / Tmax / half-life / Cmax: po, 10 mL·kg^−1, rats; for half-life: read-out: T 1/2z; for Cmax: mean±SD; for AUC 0→t in product C group, increased to % compared to that in product A or B groups: oral, product C versus product A or B
Protocol: Product A (extract mixed with FLJ extract and water, (1∶1, v / v )), product B (extract mixed with FF extract and water, (1∶1, v / v )) and product C (extract mixed with FLJ and FF extracts, (1∶1, v / v )) were given to oral administration to rats, respectively.
Male SD rats (∼250 g) were kept in an environmentally controlled breeding room (temperature: 20±2°C, relative humidity: 60±5%) for 1 week. […] The rats were randomly divided into three groups with no less than six rats in each group to receive various administrations at a single oral dose (10 mL·kg^−1) by gastric gavage. […] Subsequently, plasma was prepared by centrifugation at 1,816×g, 4°C for 7 min, and immediately analyzed or stored at −70°C for further analysis.
The main pharmacokinetic parameters including the peak plasma concentration (C max), the time to C max (T max), the AUC from 0 to infinity (AUC 0–∞), the AUC form 0 to time (AUC 0–t), mean residence time (MRT), and terminal elimination half-life (T 1/2z) were calculated by the non-compartmental analysis of plasma concentration vs. time data using the “DAS 2.1.1” software (Mathematical Pharmacology Professional Committee of China, Shanghai, China).

Caco-2 cells = test: In vitro Caco-2 monolayer model, apical to basolateral transport (P app); type: in vitro ADME, human; conditions: Caco-2 monolayer, HBSS pH 6.0, apical to basolateral
Protocol: Caco-2 cells were cultured in high glucose DMEM with 10% fetal bovine serum, 1% nonessential amino acids. Cells were cultured in a humidified atmosphere of 5% CO2 at 37°C. After reaching 80% confluens, Caco-2 cells were harvested with 0.05% trypsin-EDTA solution and seeded on top of CC inserts in 6-well plates, which has a surface area of 4.2 cm^2, at a density of 1.0×10^5 cells/cm^2. The protocols for cell culture in Transwell inserts were similar to those described previously.
Hank’s balanced salt solution (HBSS) was used as the transport buffer for the transport study in Caco-2 cells monolayer model. It was prepared by dissolving 9.5 grams of commercial available HBSS powder in 1000 mL water.
Cell culture experiments were described previously. Briefly, after culture medium was aspirated, the cell monolayers were washed three times with blank HBSS. […] The monolayers were incubated with the blank HBSS for 1 h with 37°C. Thereafter the incubation medium was aspirated. Afterwards, a solution containing the compound was loaded onto the apical side. The amounts of transported compound were measured as a function of time. […] The samples were taken at 0, 1, 2, 3 and 4 h after incubation. At the end of the transport experiment, integrity of the monolayer was monitored by TEER value.

P-gp, MRP2 and BCRP = tested on: P-gp, MRP2 and BCRP; set-up: method as in PMID 24035225, PMID 25442264; conditions: previous study; ref [21]–[22]; cited from earlier work
[2] = single oral dose 10 mL·kg^−1 of product C (FLJ and FF extracts 1:1)
[3] = single oral dose 10 mL·kg^−1 of product A (FLJ extract and water 1:1)

SMILES	AUC(0-t) [1]	AUC(0-inf) ([1]; oral product B)	MRT ([1]; oral product B)	Tmax ([1]; oral product B)	half-life ([1]; oral product B)	AUC(0-inf) ([1]; oral product C)	MRT ([1]; oral product C)	Tmax ([1]; oral product C)	half-life ([1]; oral product C)	Cmax ([1]; single oral dose 10 mL·kg^−1 of product B (FF extract and water 1:1))	Cmax [1, 2]	AUC 0→t in product C group, increased to % compared to that in product A or B groups [1]	P app in product C group, % compared with that in product B group (Caco-2 cells)	efflux transporters influencing the intestinal absorption (P-gp, MRP2 and BCRP)	AUC(0-inf) ([1]; oral product A)	MRT ([1]; oral product A)	Tmax ([1]; oral product A)	half-life ([1]; oral product A)	Cmax [1, 3]	P app in product C group, % compared to that in product A group (Caco-2 cells)
C[C@@H]1O[C@@H](OC[C@H]2O[C@@H](OCCc3ccc(O)c(O)c3)[C@H](O)[C@@H](O)[C@@H]2OC(=O)/C=C/c2ccc(O)c(O)c2)[C@H](O)[C@H](O)[C@H]1O [Forsythoside A]	420 ng·h/mL	229 ng·h/mL	3.75 h	0.167 h	4.6 ± 1.04 h	773 ng·h/mL	7.53 h	0.167 h	5.98 ± 0.357 h	102 ± 6.19 ng/mL	182 ± 38.6 ng/mL	230%	165%	affected by P-gp and MRP2, not BCRP	–	–	–	–	–	–
O=C(/C=C/c1ccc(O)c(O)c1)O[C@@H]1C[C@](O)(C(=O)O)C[C@@H](O)[C@H]1O [Chlorogenic acid]	1270 ng·h/mL	–	–	–	–	–	8.28 h	0.167 h	7.68 ± 0.535 h	–	661 ± 294 ng/mL	215%	–	influenced by P-gp, MRP2 and BCRP	707 ng·h/mL	5.78 h	0.167 h	5.37 ± 0.733 h	367 ± 169 ng/mL	140%
O=C(/C=C/c1ccc(O)c(O)c1)O[C@H]1[C@H](O)C[C@](O)(C(=O)O)C[C@H]1O [Cryptochlorogenic acid]	321 ng·h/mL	–	–	–	–	351 ng·h/mL	7.55 h	0.167 h	4.65 ± 0.287 h	–	449 ± 22.8 ng/mL	235%	–	influenced by P-gp, MRP2 and BCRP	196 ng·h/mL	5.55 h	0.167 h	1.73 ± 0.782 h	352 ± 29.4 ng/mL	133%
